Measurements published in patent publication US8050868B2, “Methods for determining the organization of a cellular component of interest” (Cellomics, Inc., priority 2001, dated 2011).

Assays:
epithelial cells = experiment: Cell-based analysis of microtubule-targeting drugs, anti-tubulin immunocytochemistry, epithelial cells
Description: (§1) The mechanism of action of microtubule-targeting drugs was assessed in a cell component of interest field, represented as an image of tubulin-stained cells. Fibroblasts, epithelial cells,) and monocytes were left untreated ) or were treated with a variety of microtubule-targeting drugs. Cells were fixed and then stained with anti-tubulin immunocytochemistry, in order to determine how the different drugs affect morphological organization of microtubules.

Fibroblasts = experiment: Cell-based analysis of microtubule-targeting drugs, anti-tubulin immunocytochemistry, fibroblasts
Description: as §1

microtubules [1] = experiment: Peaks and valleys of pixel intensity around the perinuclear ring mask (modal classification)
tubulin [2] = experiment: Multi-domain analysis of tubulin organization (angular, transverse, annular domains); assay type: cell-based; conditions: single cell
Description: Referring to FIG. 8, experiments were conducted to analyze tubulin organization in untreated (8A-D) and drug-treated (8E-H) fields of cells using angular (8B,F), transverse (8C, G) or annular domains (8D,H). […] For the purpose of analysis, cell boundaries were defined (8B-D, 8F-H) based on the reference component origin (which here is the nuclear perimeter). The component of interest field was thresholded to show the brightest pixels, and a single cell is shown for illustration purposes.
The spatial organization of intensity distribution within individual cells was then analyzed in an object of interest image, using annular domains (as in FIGS. […]). The data are shown in FIG. 9 as graphs of tubulin distribution in a single control (9A-C) and a vinblastine-treated cell (9D-F). Annular domains were created by sequential dilations of the nuclear perimeter. The position of the domain furthest away from the nucleus was given a value of one, and domain position increases in number with nuclear proximity. For each plot, measurements of tubulin distribution were normalized, by dividing the measurement obtained in a particular domain by the measurement obtained in the domain that is immediately adjacent to the nucleus. Intensity distribution within each domain was analyzed using a mathematical function to calculate the following: (1) the average pixel intensity (a measure proportional to tubulin mass) (9A, D); (2) texture difference moment (a measure proportional to tubulin periodicity) (9B, E); and (3) OD variance (a measure proportional to tubulin clustering) (9C,F). To determine the trends within each cell, data points were fitted with a linear function. […] For comparing cell populations under different treatment conditions, a number of cells in each condition can be analyzed as a sample, and the average slope within each sample used for statistical analysis.

microtubules [3] = experiment: Microtubule organization using concentric perinuclear ring masks; assay type: cell-based; conditions: for effect on microtubule organization / pattern of microtubule-associated fluorescence: similarity to other treatments: five sequential dilations of perinuclear ring mask, duplicate wells
Description: Domains were defined by five sequential dilations of a perinuclear ring mask, and measurements were made of the mean microtubule-associated intensity, the standard deviation of the microtubule-associated intensity, the mean cytoplasm to nucleus fluorescence intensity ratio, and cell-normalized microtubule fluorescence intensity. For each drug treatment condition, experiments were performed in duplicate.
Finally, the slope of the best linear fit of the microtubule associated fluorescence was calculated as a function of the angular dilation. This way, it was possible to compare the rate of change of these parameters as a function of domain position.

monocytes = experiment: Cell-based analysis of microtubule-targeting drugs, anti-tubulin immunocytochemistry, monocytes
Description: as §1

microtubules [4] = experiment: Microtubule organization using a single perinuclear ring mask and field based threshold measurements (spot count, spot area); assay type: cell-based; conditions: min-max plates
Description: (§2) Cell culture/drug treatments: Cells were plated on 96-well plates in the appropriate cell culture media plus 10% FBS. […] Different plating densities and treatment times were explored to maximize the observable effects of the drugs.
(§3) Immunofluorescence: This included three steps: (1) Extraction of soluble (monomeric) tubulin by permeabilizing the cells with 0.5% Triton X-100 in a microtubule stabilizing buffer, in order to remove unpolymerized tubulin. (2) Fixation of intracellular protein with 4% formaldehyde. (3) Microtubule, DNA, and (optional) total cellular protein fluorescence labeling. Microtubule staining was carried out by a standard immunofluorescence procedures using a primary mouse monoclonal antibody (anti-tubulin IgG), and affinity purified polyclonal secondary antibody (ALEXA FLUOR® 488-conjugated anti-mouse IgG (Molecular Probes, Inc. Eugene, OR)). After the cells were stained, DNA was labeled with 10 microgram/ml Hoechst 33342.
(§4) For cells triple-stained with tetramethylrhodamine iodoacetate (TMRIA) (Molecular Probes), Hoechst 33342, and ALEXA FLUOR® 488 (tubulin), or cells double stained with Hoechst 33342 and ALEXA FLUOR® 488, an XF57 filter block was used.

tubulin [5] = conditions: single annular domain divided into 24 angular domains
microtubules [6] = experiment: Preliminary time-course and 12 hour dose-response evaluations of microtubule polymer mass; assay type: cell-based
Description: as §2, §3, §4
Image Analysis: Quantitative determination of microtubule polymer levels was performed using the methods described above. For analysis, a binary nuclear mask was made by thresholding the Hoechst image. The nuclear image was dilated to produce a perinuclear ring mask, where cytoplasmic tubulin polymer was measured. The ring mask allowed measurement of average intensity levels associated with the microtubule image. […] Other methods of image analysis that were used are described below.
Quantitation of microtubule-associated intensity was carried out by summing the pixel intensities in the microtubule (MT) channel in the area covered by the perinuclear ring mask. This integrated pixel intensity was then divided by the actual area of the perinuclear ring mask to arrive at the mean or “average” pixel intensity in the region covered by the perinuclear ring. From these measurements a MT polymerization index was calculated by normalizing the amount of MT fluorescence in a treated, “experimental” cell population, versus the amount of MT-associated fluorescence in an untreated, control cell population. This polymerization index represents a fraction or percentage of MT polymerization or depolymerization, relative to the untreated controls. Other methods of quantitation that were used are described below.
In addition, preliminary time-course and 12 hour dose-response evaluations using paclitaxel, nocodazole, and vinblastine were performed.

3T3 cells [7] = experiment: Histogram distribution of microtubule-associated pixel intensities (OD variance); assay type: cell-based; conditions: individual 3T3 cells
Text: Finally, histogram distribution of microtubule-associated pixel intensities in individual 3T3 cells was used to distinguish control cells from cells treated with nocodazole, paclitaxel, and vinblastine.

3T3 cells [8] = experiment: Quantitative determination of microtubule polymer content (perinuclear ring mask, anti-tubulin immunofluorescence); assay type: cell-based; conditions: two-hour treatment
Description: as §2
Immunofluorescence: This included three steps: (1) Extraction of soluble (monomeric) tubulin by permeabilizing the cells with 0.5% Triton X-100 in a microtubule stabilizing buffer, in order to remove unpolymerized tubulin. (2) Fixation of intracellular protein with 4% formaldehyde. (3) Microtubule, DNA, and (optional) total cellular protein fluorescence labeling. […]
Image Analysis: Quantitative determination of microtubule polymer levels was performed using the methods described above. […] The nuclear image was dilated to produce a perinuclear ring mask, where cytoplasmic tubulin polymer was measured. […]
Quantitation of microtubule-associated intensity was carried out by summing the pixel intensities in the microtubule (MT) channel in the area covered by the perinuclear ring mask. […] From these measurements a MT polymerization index was calculated by normalizing the amount of MT fluorescence in a treated, “experimental” cell population, versus the amount of MT-associated fluorescence in an untreated, control cell population. […] Other methods of quantitation that were used are described below. […]

tubulin [9] = experiment: Population analysis of spatial organization of tubulin with five annular domains; conditions: five perinuclear annular domains; n>20 cells; duplicate
[10] = micromolar doses, 12 hour incubation
[11] = nanomolar concentrations, 12 hour incubation

| Compound | morphological organization of microtubules (epithelial cells) | morphological organization of microtubules (Fibroblasts) | type of spatial distribution of fluorescent pixel intensities at the nuclear periphery (mono-modal, non-modal, multi-modal) (microtubules [1]) | effect on microtubule organization (microtubules [3]) | morphological organization of microtubules (monocytes) | well average spot area (microtubules [4]) | well normalized spot counts (microtubules [4]) | above threshold peaks in intensity distribution per cell, on average (tubulin [5]) [spots] | effect on microtubules and cell division (microtubules [6]; [11]) | whether OD variance of the pixel intensity distribution distinguishes treated vs. control cell populations (3T3 cells [7]) | slope of best linear fit of microtubule associated fluorescence vs domain position: similarity to other treatments (microtubules [3]) | pattern of microtubule-associated fluorescence: similarity to other treatments (microtubules [3]) | standard deviation of mean tubulin fluorescence: similarity of tubulin organization to other treatments (tubulin [9]) | also measured |
| --- | --- | --- | --- | --- | --- | --- | --- | --- | --- | --- | --- | --- | --- | --- |
| CC[C@]1(O)C[C@@H]2CN(CCc3c([nH]c4ccccc34)[C@@](C(=O)OC)(c3cc4c(cc3OC)N(C)[C@H]3[C@@](O)(C(=O)OC)[C@H](OC(C)=O)[C@]5(CC)C=CCN6CC[C@]43[C@@H]65)C2)C1 [vinblastine] | disrupted the microtubules and led to the formation of tubulin paracrystals | depolymerized the microtubules and led to the formation of tubulin paracrystals | Multimodal | formation of microtubule bundles or aggregates in the cytoplasm | intermediate effect between nocodazole and paclitaxel | significant decrease | partly increasing | 3 | depolymerized microtubules and inhibited microtubule polymerization | could not distinguish | – | – | – | distribution of brightest thresholded pixels over angular, transverse or annular domains (tubulin [2]; FIG. 8): broader distribution; OD variance (tubulin clustering) as a function of domain position (tubulin [2]; FIG. 9): marked decrease; texture difference moment (tubulin periodicity) as a function of distance from the nucleus (tubulin [2]; FIG. 9): centrifugal increase; trend of average pixel intensity (tubulin mass) as a function of annular domain position (tubulin [2]; linear fit, FIG. 9): positive slope; effect on tubulin organization (microtubules [6]; [10]): induced the formation of tubulin paracrystals; microtubule polymer mass (microtubules [6]; [10]): apparent increase |
| COC(=O)Nc1nc2ccc(C(=O)c3cccs3)cc2[nH]1 [nocodazole] | induced microtubule depolymerization and led to diffuse staining of tubulin throughout the cell cytoplasm | depolymerized the microtubules, and led to a diffuse staining of tubulin throughout the cytoplasm | Non-modal | microtubule disruption | led to microtubule depolymerization and led to diffuse tubulin staining | – | – | 2 | inhibit cell division without necessarily inducing the net depolymerization of microtubules | could distinguish | most similar to the slope of cells treated with colchicine | resembled colchicine treated cells | more similar to colchicine-treated cells | cell-associated microtubule intensity (3T3 cells [8]; 5 micromolar): significant decrease; microtubule polymer mass (microtubules [6]; [11]): increase |
| CC(=O)O[C@H]1C(=O)[C@@]2(C)[C@H]([C@H](OC(=O)c3ccccc3)[C@]3(O)C[C@H](OC(=O)[C@H](O)[C@@H](NC(=O)c4ccccc4)c4ccccc4)C(C)=C1C3(C)C)[C@]1(OC(C)=O)CO[C@@H]1C[C@@H]2O [paclitaxel, Paclitaxel] | induced formation of microtubule bundles in association with the cell edge | formation of microtubule bundles, and destroyed the focal organization of microtubules | Multimodal | formation of microtubule bundles or aggregates in the cytoplasm | decreased microtubule staining in the nuclear region | increased | partly increased | 4 | – | could distinguish | most similar to the slope of cells treated with vinblastine | resembled vinblastine treated cells | more similar to vinblastine-treated cells | cell-associated microtubule intensity (3T3 cells [8]; 1 micromolar): significant increase; quality of dose-response data (microtubules [6]; 12 hour dose-response, preliminary): excellent dose response data |
